According to ChEMBL document CHEMBL3856198, “Synthesis of novel 17-(4'-formyl)pyrazolylandrosta-5,16-dienes and their derivatives as potent 17α-hydroxylase/C17,20-lyase inhibitors or antiproliferative agents depending on the substitution pattern of the heteroring” (Eur J Med Chem, 2016):
pIC50: −log10 of the molar value.

Tests used:
[1] = Growth inhibition of human T47D cells at 30 uM after 72 hrs by MTT assay; type: functional; conditions: read-out: GI
[2] = Growth inhibition of human T47D cells at 10 uM after 72 hrs by MTT assay; type: functional; conditions: read-out: GI
[3] = Growth inhibition of human MDA-MB-361 cells at 30 uM after 72 hrs by MTT assay; type: functional; conditions: MDA-MB-361, 72 h, read-out: GI
[4] = Growth inhibition of human MDA-MB-361 cells at 10 uM after 72 hrs by MTT assay; type: functional; conditions: MDA-MB-361, 72 h, read-out: GI
[5] = Growth inhibition of human MCF7 cells at 10 uM after 72 hrs by MTT assay; type: functional; conditions: MCF7, 72 h, read-out: GI
[6] = Growth inhibition of human MDA-MB-231 cells at 10 uM after 72 hrs by MTT assay; type: functional; conditions: MDA-MB-231, 72 h, read-out: GI
[7] = Growth inhibition of human MDA-MB-231 cells at 30 uM after 72 hrs by MTT assay; type: functional; conditions: MDA-MB-231, 72 h, read-out: GI
[8] = Growth inhibition of human MCF7 cells at 30 uM after 72 hrs by MTT assay; type: functional; conditions: MCF7, 72 h, read-out: GI
[9] = Growth inhibition of human MDA-MB-231 cells after 72 hrs by MTT assay; type: functional, cell-based; conditions: MDA-MB-231, 72 h
[10] = Growth inhibition of human MDA-MB-361 cells after 72 hrs by MTT assay; type: functional, cell-based; conditions: MDA-MB-361, 72 h

Row | Structure (SMILES) | inhibition of growth at 30 µM [1] [%] | inhibition of growth at 10 µM [2] [%] | inhibition of growth at 30 µM [3] [%] | inhibition of growth at 10 µM [4] [%] | inhibition of growth at 10 µM [5] [%] | inhibition of growth at 10 µM [6] [%] | inhibition of growth at 30 µM [7] [%] | inhibition of growth at 30 µM [8] [%] | pIC50 [9] | pIC50 [10]
1 | CC(=O)O[C@H]1CC[C@@]2(C)C(=CC[C@@H]3[C@@H]2CC[C@]2(C)C(c4nn(C)cc4C#N)=CC[C@@H]32)C1 | 60.4 | 21.7 | 53.1 | 30.8 | 41.8 | 30.5 | 34.9 | 50.3 | – | –
2 | CC(=O)O[C@H]1CC[C@@]2(C)C(=CC[C@@H]3[C@@H]2CC[C@]2(C)C(c4n[nH]cc4C=O)=CC[C@@H]32)C1 | 63.3 | < 20 | 64.2 | < 20 | < 20 | < 20 | < 20 | 83.5 | – | –
3 | C[C@]12CC[C@H](O)CC1=CC[C@@H]1[C@@H]2CC[C@]2(C)C(c3nn(-c4ccc([N+](=O)[O-])cc4)cc3CO)=CC[C@@H]12 | 84.7 | 73.2 | 91.9 | 82.2 | 65.4 | 78.1 | 92.7 | 87.6 | 5.37 | 5.57
4 | CC(=O)O[C@H]1CC[C@@]2(C)C(=CC[C@@H]3[C@@H]2CC[C@]2(C)C(c4nn(-c5ccc([N+](=O)[O-])cc5)cc4C=O)=CC[C@@H]32)C1 | 62.8 | < 20 | 56.2 | < 20 | < 20 | < 20 | 22.7 | 51.9 | – | –
5 | C[C@]12CC[C@H](O)CC1=CC[C@@H]1[C@@H]2CC[C@]2(C)C(c3nn(-c4ccc(Cl)cc4)cc3C=O)=CC[C@@H]12 | 68.4 | 43.6 | 60.5 | 48.4 | 32.1 | < 20 | 41.1 | 55.7 | – | –
6 | CC(=O)O[C@H]1CC[C@@]2(C)C(=CC[C@@H]3[C@@H]2CC[C@]2(C)C(c4nn(-c5ccc(Br)cc5)cc4C=O)=CC[C@@H]32)C1 | 63.6 | 51.4 | 55.1 | 33.8 | 41.2 | 21.7 | 51.9 | 60.6 | – | –
7 | COc1ccc(-n2cc(C=O)c(C3=CC[C@H]4[C@@H]5CC=C6C[C@@H](OC(C)=O)CC[C@]6(C)[C@H]5CC[C@]34C)n2)cc1 | 69.1 | 33.9 | 66.7 | 32.8 | 43.8 | < 20 | 54.4 | 77.7 | – | –
8 | CC(=O)O[C@H]1CC[C@@]2(C)C(=CC[C@@H]3[C@@H]2CC[C@]2(C)C(c4nn(C(C)=O)cc4C#N)=CC[C@@H]32)C1 | 63.9 | < 20 | 64.6 | < 20 | < 20 | < 20 | 61.3 | 70 | – | –
9 | CC(=O)O[C@H]1CC[C@@]2(C)C(=CC[C@@H]3[C@@H]2CC[C@]2(C)C(c4nn(C)cc4C=O)=CC[C@@H]32)C1 | 65.2 | < 20 | 55.6 | < 20 | 30.9 | < 20 | 26.2 | 61.9 | – | –
10 | COc1ccc(-n2cc(CO)c(C3=CC[C@H]4[C@@H]5CC=C6C[C@@H](O)CC[C@]6(C)[C@H]5CC[C@]34C)n2)cc1 | 79.6 | 62.2 | 86.7 | 64.7 | 51.8 | 69.3 | 92.9 | 75.5 | – | –
11 | CC(=O)O[C@H]1CC[C@@]2(C)C(=CC[C@@H]3[C@@H]2CC[C@]2(C)C(c4nn(-c5ccc(C#N)cc5)cc4C=O)=CC[C@@H]32)C1 | 83.6 | 60.4 | 80.4 | 58.9 | 62.2 | 43 | 84.5 | 85.3 | – | –
